# Data from US12180185B2, “Compound as protein kinase inhibitor, and pharmaceutical composition comprising thereof” (HK INNO.N Corporation, priority 2018, dated 2024).
# Target: JAK1 (Homo sapiens (Human), UniProt P23458)
# Assay: Analysis of JAK1 activity inhibitory capacity (ADP-Glo Kinase assay)
# Assay type: biochemical
# Settings: JAK1 enzyme, ATP 250 uM, IRS-1tide substrate, 30° C. 40 minutes, luminescence
# Experimental: Experimental Example 1: Analysis of JAK1 activity inhibitory capacity (ADP-Glo™ Kinase assay)
# An inhibitory effect of the inventive compound on JAK was identified as follows.
# A control material and a test material were prepared through dilution at each concentration by using DMSO. At the same time, ATP (250 uM) and JAK's substrate (JAK1, IRS-1tide 40 ng/mL) were prepared through dilution in kinase buffer (40 mM Tris-HCl pH 7.5, 20 mM MgCl2, 0.5 mg/mL BSA, 50 uM DTT).
# A test drug for each concentration, the substrate, the ATP and JAK enzymes were mixed in an eppendorf tube, and then subjected to reaction in an incubator at 30° C. for 40 minutes.
# ADP-Glo ? reagent included in ADP-Glo™ Kinase Enzyme System (Promega, USA, V9571) was added to each eppendorf tube, and then subjected to reaction in the incubator at 30° C. for 40 minutes.
# A kinase detection reagent included in the ADP-Glo™ Kinase Enzyme System was inserted into the eppendorf tube, after which luminescence was measured by using Wallac Victor 2TM with an integration time set to 1 second, such that an inhibitory capacity of the test material on JAKs phosphorylation was analyzed. A concentration of the compound, at which JAK enzyme activity inhibition occurs 50% compared to the control group, was determined as IC50 (nM) of an inhibitor.
# Sequence of JAK1 (P23458 whole entry): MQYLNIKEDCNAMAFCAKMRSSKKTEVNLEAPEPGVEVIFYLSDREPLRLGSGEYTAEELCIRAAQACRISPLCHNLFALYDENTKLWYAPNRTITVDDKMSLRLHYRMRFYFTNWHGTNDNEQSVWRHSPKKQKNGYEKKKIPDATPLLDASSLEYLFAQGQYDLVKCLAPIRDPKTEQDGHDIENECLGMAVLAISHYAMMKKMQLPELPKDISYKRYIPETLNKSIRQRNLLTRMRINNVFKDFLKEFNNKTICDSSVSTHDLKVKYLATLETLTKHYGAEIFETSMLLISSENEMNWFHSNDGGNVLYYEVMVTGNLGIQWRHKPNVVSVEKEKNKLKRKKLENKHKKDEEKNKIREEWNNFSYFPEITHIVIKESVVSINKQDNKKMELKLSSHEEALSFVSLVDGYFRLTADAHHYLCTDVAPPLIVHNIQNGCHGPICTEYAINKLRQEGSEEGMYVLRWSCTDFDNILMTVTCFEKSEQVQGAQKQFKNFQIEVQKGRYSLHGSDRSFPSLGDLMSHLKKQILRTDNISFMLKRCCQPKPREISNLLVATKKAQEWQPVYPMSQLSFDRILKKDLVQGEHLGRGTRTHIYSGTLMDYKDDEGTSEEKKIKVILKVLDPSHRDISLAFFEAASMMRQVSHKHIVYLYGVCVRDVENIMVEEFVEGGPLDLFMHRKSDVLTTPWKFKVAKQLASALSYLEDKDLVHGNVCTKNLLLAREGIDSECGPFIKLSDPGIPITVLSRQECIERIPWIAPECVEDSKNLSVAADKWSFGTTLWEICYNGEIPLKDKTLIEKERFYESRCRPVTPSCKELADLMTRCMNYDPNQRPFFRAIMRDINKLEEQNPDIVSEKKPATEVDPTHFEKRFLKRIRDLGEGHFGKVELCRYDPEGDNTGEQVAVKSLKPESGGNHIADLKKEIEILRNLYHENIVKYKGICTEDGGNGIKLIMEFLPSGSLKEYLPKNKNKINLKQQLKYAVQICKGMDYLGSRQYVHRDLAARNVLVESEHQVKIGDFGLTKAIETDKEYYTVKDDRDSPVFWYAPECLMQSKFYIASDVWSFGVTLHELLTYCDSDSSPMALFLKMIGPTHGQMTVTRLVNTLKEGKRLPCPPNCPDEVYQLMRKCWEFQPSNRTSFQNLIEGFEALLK
row,Structure (SMILES),IC50
1,"N#Cc1cc(C(=O)Nc2cccc3c(-c4ccnc(NC(=O)C5CC5)c4)c[nH]c23)ccn1 [Example 35, 2-cyano-N-(3-(2-(cyclopropanecarboxamido)pyridin-4-yl)-1H-indol-7-yl)isonicotin amide]",0.1 to 1 µM
2,"CCc1c[nH]c(C(=O)Nc2cccc3c(-c4ccnc(NC(=O)C5CC5)c4)c[nH]c23)c1 [Example 36, N-(3-(2-(cyclopropanecarboxamido)pyridin-4-yl)-1H-indol-7-yl)-4-ethyl-1H-pyrrole-2-carboxamide]",0.1 to 1 µM
3,"O=C(NCC(F)(F)F)Nc1cccc2c(-c3ccnc(NC(=O)C4CC4)c3)cn(C(=O)NCC(F)(F)F)c12 [Example 37, 3-(2-(cyclopropanecarboxamido)pyridin-4-yl)-N-(2,2,2-trifluoroethyl)-7-(3-(2,2,2-trifluoroethyl)ureido)-1H-indole-1-carboxamide]",> 1 µM
4,"O=C(Nc1cccc2c(-c3ccnc(NC(=O)C4CC4)c3)c[nH]c12)c1cccc(F)c1 [Example 38, N-(3-(2-(cyclopropanecarboxamido)pyridin-4-yl)-1H-indol-7-yl)-3-fluorobenzamide]",0.1 to 1 µM
5,"O=C(NCC(F)(F)F)Nc1cccc2c(-c3ccnc(NC(=O)C4CC4)c3)c[nH]c12 [Example 39, N-(4-(7-(3-(2,2,2-trifluoroethyl)ureido)-1H-indol-3-yl)pyridin-2-yl)cyclopropanecarboxamide]",< 0.1 µM
6,"CC(C)=C(C#N)C(=O)Nc1cccc2c1ccn2-c1ccnc(NC(=O)C2CC2)c1 [Example 40, N-(4-(4-(2-cyano-3-methylbut-2-enamido)-1H-indol-1-yl)pyridin-2-yl)cyclopropanecarboxamide]",0.1 to 1 µM
7,"N#CCC(=O)Nc1cccc2c1ccn2-c1ccnc(NC(=O)C2CC2)c1 [Example 41, N-(4-(4-(2-cyanoacetamido)-1H-indol-1-yl)pyridin-2-yl)cyclopropanecarboxamide]",0.1 to 1 µM
8,"Cc1ncc(C(=O)Nc2cccc3c2ccn3-c2ccnc(NC(=O)C3CC3)c2)s1 [Example 43, N-(1-(2-(cyclopropanecarboxamido)pyridin-4-yl)-1H-indol-4-yl)-2-methylthiazole-5-carboxamide]",> 1 µM
9,"O=C(Nc1cccc2c1ccn2-c1ccnc(NC(=O)C2CC2)c1)c1cc(F)cc(F)c1 [Example 44, N-(1-(2-(cyclopropanecarboxamido)pyridin-4-yl)-1H-indol-4-yl)-3,5-difluorobenzamide]",> 1 µM
10,"Cn1cccc(C(=O)Nc2cccc3c2ccn3-c2ccnc(NC(=O)C3CC3)c2)c1=O [Example 45, N-(1-(2-(cyclopropanecarboxamido)pyridin-4-yl)-1H-indol-4-yl)-1-methyl-2-oxo-1,2-dihydropyridine-3-carboxamide]",> 1 µM
11,"N#C/C(=C/c1cccs1)C(=O)Nc1cccc2c1ccn2-c1ccnc(NC(=O)C2CC2)c1 [Example 46, N-(4-(4-(2-cyano-3-(thiophen-2-yl)acrylamido)-1H-indol-1-yl)pyridin-2-yl)cyclopropanecarboxamide]",> 1 µM
12,"N#Cc1ccc(C(=O)Nc2cccc3c2ccn3-c2ccnc(NC(=O)C3CC3)c2)cc1 [Example 47, 4-cyano-N-(1-(2-(cyclopropanecarboxamido)pyridin-4-yl)-1H-indol-4-yl)benzamide]",> 1 µM
13,"N#C/C(=C\c1ccccc1)C(=O)Nc1cccc2c1ccn2-c1ccnc(NC(=O)C2CC2)c1 [Example 48, N-(4-(4-(2-cyano-3-phenylacrylamido)-1H-indol-1-yl)pyridin-2-yl)cyclopropanecarboxamide]",> 1 µM

# Continued, values first:
row,IC50,Structure (SMILES)
1,> 1 µM,"Cn1c(C(=O)Nc2cccc3c2ccn3-c2ccnc(NC(=O)C3CC3)c2)cc2ccccc21 [Example 49, N-(1-(2-(cyclopropanecarboxamido)pyridin-4-yl)-1H-indol-4-yl)-1-methyl-1H-indole-2-carboxamide]"
2,> 1 µM,"N#CC1(C(=O)Nc2cccc3c2ccn3-c2ccnc(NC(=O)C3CC3)c2)CCOCC1 [Example 50, 4-cyano-N-(1-(2-(cyclopropanecarboxamido)pyridin-4-yl)-1H-indol-4-yl)tetrahydro-2H-pyran-4-carboxamide]"
3,> 1 µM,"N#Cc1cc(C(=O)Nc2cccc3c2ccn3-c2ccnc(NC(=O)C3CC3)c2)ccn1 [Example 51, 2-cyano-N-(1-(2-(cyclopropanecarboxamido)pyridin-4-yl)-1H-indol-4-yl)isonicotinamide]"
4,> 1 µM,"O=C(Nc1cccc2c1ccn2-c1ccnc(NC(=O)C2CC2)c1)c1ccnc(F)c1 [Example 52, N-(1-(2-(cyclopropanecarboxamido)pyridin-4-yl)-1H-indol-4-yl)-2-fluoroisonicotinamide]"
5,0.1 to 1 µM,"O=C(Nc1cccc2c1ccn2-c1ccnc(NC(=O)C2CC2)c1)c1ccnc(F)c1F [Example 53, N-(1-(2-(cyclopropanecarboxamido)pyridin-4-yl)-1H-indol-4-yl)-2,3-difluoroisonicotinamide]"
6,0.1 to 1 µM,"CC(C#N)C(=O)Nc1cccc2c1ccn2-c1ccnc(NC(=O)C2CC2)c1 (stereo not drawn) [Example 54, N-(4-(4-(2-cyanopropanamido)-1H-indol-1-yl)pyridin-2-yl)cyclopropanecarboxamide]"
7,> 1 µM,"O=C(Nc1cccc2c1ccn2-c1ccnc(NC(=O)C2CC2)c1)c1cc[nH]n1 [Example 55, N-(1-(2-(cyclopropanecarboxamido)pyridin-4-yl)-1H-indol-4-yl)-1H-pyrazole-3-carboxamide]"
8,0.1 to 1 µM,"COc1ccc(C(=O)Nc2cccc3c2ccn3-c2ccnc(NC(=O)C3CC3)c2)cc1F [Example 56, N-(1-(2-(cyclopropanecarboxamido)pyridin-4-yl)-1H-indol-4-yl)-3-fluoro-4-methoxybenzamide]"
9,< 0.1 µM,"N#C[C@H]1C[C@H]1C(=O)Nc1cccc2c1ccn2-c1ccnc(NC(=O)C2CC2)c1 [Example 57, (1R,2S)-2-cyano-N-(1-(2-(cyclopropanecarboxamido)pyridin-4-yl)-1H-indol-4-yl) cyclopropane-1-carboxamide]"
10,0.1 to 1 µM,"N#CC1(CC(=O)Nc2cccc3c2ccn3-c2ccnc(NC(=O)C3CC3)c2)CC1 [Example 58, N-(4-(4-(2-(1-cyanocyclopropyl)acetamido)-1H-indol-1-yl)pyridin-2-yl)cyclopropane carboxamide]"
11,> 1 µM,"Cc1ccc(C(=O)Nc2cccc3c2ccn3-c2ccnc(NC(=O)C3CC3)c2)cn1 [Example 59, N-(1-(2-(cyclopropanecarboxamido)pyridin-4-yl)-1H-indol-4-yl)-6-methylnicotinamide]"
12,> 1 µM,"CC(C)=C(C)C(=O)Nc1cccc2c1ccn2-c1ccnc(NC(=O)C2CC2)c1 [Example 60, N-(4-(4-(2,3-dimethylbut-2-enamido)-1H-indol-1-yl)pyridin-2-yl)cyclopropanecarboxamide]"
13,> 1 µM,"O=C(Nc1ccc(F)cc1F)Nc1cccc2c1ccn2-c1ccnc(NC(=O)C2CC2)c1 [Example 61, N-(4-(4-(3-(2,4-difluorophenyl)ureido)-1H-indol-1-yl)pyridin-2-yl)cyclopropanecarboxamide]"
14,< 0.1 µM,"O=C(NCC(F)(F)F)Nc1cccc2c1ccn2-c1ccnc(NC(=O)C2CC2)c1 [Example 62, N-(4-(4-(3-(2,2,2-trifluoroethyl)ureido)-1H-indol-1-yl)pyridin-2-yl)cyclopropanecarboxamide]"
